Laboratory results as given in PubChem BioAssay (NCI).
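1) Cells in 96-well plates. 2) Compound, 48 h, 5 concentrations. 3) Linear interpolation between surrounding doses. 4) Unreached endpoint = highest concentration. Abbreviation: GI50, concentration required for 50% inhibition of growth. TGI: concentration producing complete growth inhibition.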

Columns and labels:
Assay in all cases: DTP human tumour cell line panel, 48 h
[1] = system: UO-31 renal
[2] = system: DU-145 prostate
[3] = system: RXF 393 renal
[4] = system: BT-549 breast
[5] = system: OVCAR-4 ovarian
[6] = system: HL-60(TB) leukemia
[7] = system: OVCAR-3 ovarian
[8] = system: TK-10 renal
[9] = system: SK-MEL-2 melanoma
[10] = system: OVCAR-5 ovarian

Compound	GI50 [1] [µM]	TGI [1] [µM]	GI50 [2] [µM]	TGI [2] [µM]	GI50 [3] [µM]	TGI [3] [µM]	GI50 [4] [µM]	TGI [4] [µM]	GI50 [5] [µM]	TGI [5] [µM]	GI50 [6] [µM]	TGI [6] [µM]	GI50 [7] [µM]	TGI [7] [µM]	GI50 [8] [µM]	TGI [8] [µM]	GI50 [9] [µM]	TGI [9] [µM]	GI50 [10] [µM]	TGI [10] [µM]
COC1=CC(c2ccc[nH]2)=N/C1=C\c1[nH]c(C)c(C(=O)CCCCC(=O)NC(C)(C)C)c1C	1.95	6.27	1.69	3.79	1.66	3.6	1.41	4.5	1.78	6.29	1.91	4.06	1.22	2.73	1.39	3.41	17.7	42.5	1.89	8.73
COc1cccc(-c2nn(-c3ccccc3)cc2-c2ccnc(NCCCNC(=O)Nc3ccc(Cl)c(Cl)c3)c2)c1	1.78	5.65	5.47	23	1.81	4.87	3.2	11.2	3.55	18.1	2.51	5.81	4.57	17.3	4.51	17.1	1.92	4.07	3.53	25.4
CC1OC(OC2C[C@](O)(C(=O)CF)Cc3c(O)c4c(c(O)c32)C(=O)c2ccccc2C4=O)CC(N)C1O (some centres undefined)		1.02		1.14		0.268		0.918		0.86		< 0.0291		1.49		0.497		0.512		0.541
COc1ccc(-c2nc(-c3ccccc3)c(-c3ccccc3)[nH]2)cc1OC1CCCC1	> 100	> 100	> 100	> 100	8.3	99.5	> 100	> 100	> 100	> 100	> 100	> 100	> 100	> 100			> 100	> 100	> 100	> 100
CCCCC[C@H]1C/C=C2/C(=O)C=C[C@@H]2C/C=C\CCCC(=O)O[C@@H](CCCCC)C/C=C2/C(=O)C=C[C@@H]2C/C=C\CCCC(=O)O1	0.394	0.75	0.355	1.34	0.193	0.526	0.32	1.02	0.475	2.67	0.136	0.704	0.0955	0.353	0.582	1.31	0.385	1.22	0.566	1.31
NC(=O)c1ccc(I)c(N=O)c1	19.9	57.8	43.7	> 100	28.7	66	40.3	> 100	17.7	43.5	29	85.5	27.4	71.5	34.9	> 100	31.3	87.8	71.9	> 100
C[C@]12CCc3sc(NCCc4ccccc4)nc3C1=CC[C@@H]1[C@@H]2CC[C@]2(C)C(=O)CC[C@@H]12	4.03	25.1	3.64	> 100	1.73	4.49	2.42	> 100	3.93	> 100	2.93	9.1	2.08	4.83	4.15	> 100	17	> 100	4.44	65.9
O=C(Nc1cccc(-n2cc(-c3ccncc3)c(-c3ccc(Cl)c(O)c3)n2)c1)c1ccc(N2CCOCC2)c(C(F)(F)F)c1	2.6	34.3	4.2	> 50	0.626	2.9	19.4	> 50	39.2	> 50	3.81	> 50	4.81	> 50	21.3	> 50	2.89	15.3	> 50	> 50
CNC(=O)c1cccc2cc(Oc3ccnc4cc(OCC5(N)CC5)c(OC)cc34)ccc12	2.57	8.16	12.1	25.5	4.42	20.4	5.63	22.1	2.89	21.8	8.26	26.3	8.86	23.7	12.9	26.6	14.3	32	6.94	19.3
COc1cc2ccccc2oc1=O		> 100		> 100		48.5		> 100		> 100		> 100		> 100		> 100		> 100		> 100
CCCc1cc(=O)[nH]c(-n2nc(C)cc2C)n1	2.4	> 100	7.66	> 100	18.6	> 100	6.86	> 100	4.68	> 100	2.04	20.7	7.43	> 100			13	63	28	> 100
O=C(N/C(=C/c1ccc(Cl)cc1Cl)c1nc2ccccc2s1)c1ccccc1		29.9		31.5		54.9		64.8		33.7		> 100		24.5		42.8		36.1		32
CNCCCn1c2c(c3ccc([N+](=O)[O-])cc3c1=O)C(=O)c1cc(OC)cnc1-2	0.0341	0.221	0.052	1.15	0.0685	0.372	0.373	2.56	0.173	10.1	0.0413	0.921	0.174	0.617	0.317	1.5	0.348	0.994	0.135	0.882
O=C(Nc1cccc(-n2cc(-c3ccncc3)c(-c3cc(O)cc(Cl)c3)n2)c1)Nc1ccc(Cl)c(C(F)(F)F)c1	2.1	6.14	3.27	11.7	1.42	3.88	2.25	6.15	3.21	9.23	2.86	6.62	2.34	6.65			2.2	4.55	3.79	13.1
